Data set [1] concerns the target T1, COI1 (Arabidopsis thaliana, UniProt O04197).
T1 construct: GST (N, cleaved yes); made in house; host or cells: Sf9 insect cells
As to the kind of experiment: Differential scanning fluorimetry (DSF) assay, COI1 alone. In kind it is binding. Particulars: for shift in the melting point of COI1: COI1 alone, substance titrated. As for the experimental part:
(§1) COR/COR-MO/CFA-Ile were dissolved in DMSO, (3R,7S)/(3R,7R)-JA-Ile and cis-OPDA were dissolved in ethanol, JA was dissolved in sterilized water to generate 10 mM stock solutions and diluted with corresponding solvent for preparation of 100 μM and 1 mM stock solutions, respectively. JAZ1/9 peptides were dissolved in sterilized water to generate 10 mM stock solutions and diluted to prepare 100 μM stock solutions. […] DSF experiments were carried out using StepOnePlus Real-Time PCR System (Thermo Fisher Scientific, Inc., MA, US). Protein Thermal Shift Dye (Thermo Fisher Scientific, Inc., MA, US) was used as the reporter dye. […] Samples were heated from 25 °C to 95 °C. The denaturation curve was obtained using Protein Thermal Shift Software (Thermo Fisher Scientific, Inc., MA, US) to afford ΔTm value for each condition. An average ΔTm value of three independent measurements was plotted, and ΔTm dose-response curves were analyzed with nonlinear curve-fitting analysis to evaluate Ka and Kd values using KaleidaGraph software (v4.1.1, Synergy Software).
(§2) The determination of the Kd value was conducted by curve fitting the dose-response ΔTm values. Experiments were performed in triplicate to obtain the mean and S.D. (shown as error bars). Dose-response curves were analyzed with the nonlinear curve-fitting analysis to evaluate apparent Ka and Kd values using KaleidaGraph v4.1.1 software.
On the technique in general: In DSF a fluorescence change marks the thermal transition of the protein.

Another data set deals with T2, COI1-JAZ1 (Arabidopsis thaliana, UniProt O04197+Q9LMA8, DEL221-253).
T2 construct: GST (N, cleaved yes); made in house; host or cells: Sf9 insect cells (COI1-ASK1); JAZ peptide by chemical synthesis
Nature of the data set: biochemical. In kind it is binding. As for the experimental part:
as §1, with “JAZ1/9” for “COR/COR-MO/CFA-Ile were dissolved in DMSO, (3R,7S)/(3R,7R)-JA-Ile and cis-OPDA were dissolved in ethanol, JA was dissolved in sterilized water to generate 10 mM stock solutions and diluted with corresponding solvent for preparation of 100 μM and 1 mM stock solutions, respectively. JAZ1/9”
as §2

For data set [2], the target named is T3, COI1-JAZ9 (Arabidopsis thaliana, UniProt O04197+Q8W4J8). As to the kind of experiment: DSF assay, COI1 with JAZ9 degron peptide (JAZP9). In kind it is binding. As to the method: as §1, §2
Data set [3] concerns the target T1, COI1. Particulars: read-out: Kd (COI1, iTC assay); previously reported using the iTC assay ref 18; cited from earlier work.
The target in a further data set is COI1-JAZP1. Also on record: method as in PMID 20927106. The following applies: previously obtained ref 19; cited from earlier work.
Data set [4] has as its target T3, COI1-JAZ9. Also noted: method as in PMID 19349968. Particulars: pull-down assay, times stronger ref 12; cited from earlier work.
A further data set concerns the target T4, GST-COI1/JAZP1 (Arabidopsis thaliana, UniProt O04197+Q9LMA8, DEL221-253).
T4 construct: made in house; host or cells: Sf9 insect cells (GST-COI1/ASK1); JAZ peptide by chemical synthesis
As to the kind of experiment: Isothermal titration calorimetry (iTC), GST-COI1/JAZP1. In kind it is binding. As for the experimental part: The experiments were performed with iTC 200 Microcalorimeter (MicroCal, Malvern Panalytical, UK) at 25°C. […] The measurements were carried out by 19 × 2 μL successive injections of solutions (initial injection of 0.4 μL), with a 180s spacing time between injections, stirring of 750 rpm, and a reference power of 5 μcal/s. The measured heat changes of the binding reactions were integrated and processed using the standard “one set of sites” model implemented in the Origin (version 7.0) software package to determine the binding stoichiometry (n) and the equilibrium dissociation constant (Kd) and other thermodynamic parameters (ΔG, ΔH, ΔS).

For the next data set, the target named is T5, GST-COI1 (Arabidopsis thaliana, UniProt O04197).
T5 construct: made in house; host or cells: Sf9 insect cells
T5 sequence (O04197 1-592): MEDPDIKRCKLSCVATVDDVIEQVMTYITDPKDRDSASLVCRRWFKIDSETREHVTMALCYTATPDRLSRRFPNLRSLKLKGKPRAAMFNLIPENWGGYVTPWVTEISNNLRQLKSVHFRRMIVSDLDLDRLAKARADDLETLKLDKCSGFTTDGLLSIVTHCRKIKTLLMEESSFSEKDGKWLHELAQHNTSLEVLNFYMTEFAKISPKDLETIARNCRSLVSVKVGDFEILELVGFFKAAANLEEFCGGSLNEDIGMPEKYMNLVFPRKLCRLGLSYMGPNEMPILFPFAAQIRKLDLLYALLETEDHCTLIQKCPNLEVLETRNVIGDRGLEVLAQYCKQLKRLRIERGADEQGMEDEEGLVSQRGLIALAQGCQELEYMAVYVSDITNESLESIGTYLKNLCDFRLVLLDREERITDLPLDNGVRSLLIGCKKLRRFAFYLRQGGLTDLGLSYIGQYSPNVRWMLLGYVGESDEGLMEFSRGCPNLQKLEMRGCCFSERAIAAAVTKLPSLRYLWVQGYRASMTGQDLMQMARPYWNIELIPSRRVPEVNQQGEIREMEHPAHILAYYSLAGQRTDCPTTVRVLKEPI
T5 sequence (Q39255 1-160 partner): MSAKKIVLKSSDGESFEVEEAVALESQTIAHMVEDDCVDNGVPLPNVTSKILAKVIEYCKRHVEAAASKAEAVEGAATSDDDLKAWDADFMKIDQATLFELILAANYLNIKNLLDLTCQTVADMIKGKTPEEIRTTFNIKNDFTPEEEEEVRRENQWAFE
As to the kind of experiment: Isothermal titration calorimetry (iTC), GST-COI1 only. Format: binding. As to the method: (§3) The experiments were performed with iTC 200 Microcalorimeter (MicroCal, Malvern Panalytical, UK) at 25°C. GST-COI1 concentration was determined by BCA assay (Thermo Fisher Scientific, Inc., MA, US) using NanoPhotometerN60 (IMPLEN GmbH, Germany). […] The measurements were carried out by 19 × 2 μL successive injections of solutions (initial injection of 0.4 μL), with a 180s spacing time between injections, stirring of 750 rpm, and a reference power of 5 μcal/s. The measured heat changes of the binding reactions were integrated and processed using the standard “one set of sites” model implemented in the Origin (version 7.0) software package to determine the binding stoichiometry (n) and the equilibrium dissociation constant (Kd) and other thermodynamic parameters (ΔG, ΔH, ΔS).

A further data set deals with T6, JAZP1.
T6 construct: made in house; host or cells: chemical peptide synthesis
As to the kind of experiment: Isothermal titration calorimetry (iTC), JAZP1 only. In kind it is binding, Arabidopsis thaliana. The following applies: 150 μM ligand into JAZP1 (10 μM), only heat of dilution. As to the method:
as §3
Background: ITC needs no label: the signal is the heat of the interaction.

Data set [5] can be described thus: Isomerization under DSF conditions analyzed by UPLC-MS/MS. Format: physicochemical. The following applies: DSF heating conditions. The text has this: Thus, some amount of (3R, 7S)-JA-Ile still exists under the DSF heating conditions.
Details of data set [6]: method as in PMID 19349968. The following applies: after 1 h of heating at 95°C ref 12; cited from earlier work.

Each structure is given as a SMILES string. Where two headings read alike, the source gives them in different places.

The term Kd denotes the concentration at which binding is half-saturated.

T3 sequence (Q8W4J8 218-238, one chain of several): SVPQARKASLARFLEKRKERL
T2 sequence (Q9LMA8 200-220, stated change not applied, one chain of several): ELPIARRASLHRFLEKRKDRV

Regarding `CCC=CCC1C(=O)CCC1CC(=O)NC1(C(=O)O)CC1CC` [JA-CMA, (3R, 7S)/(3R, 7R)-jasmonoyl CMA], the “shift in the melting point of COI1” value on COI1 [1] (DSF) is recorded as “little or no shift”. Further, the Kd on COI1-JAZ1 stood at 33.5 µM; on COI1-JAZ9 [2], 24.2 µM.
For `CC[C@H]1C=C(C(=O)N[C@@]2(C(=O)O)C[C@@H]2CC)[C@H]2CCC(=NOC)[C@H]2C1` [COR-MO], the Kd on COI1 [1] stood at 2.65 µM; at COI1-JAZ1 (read-out: Kd COI1-JAZ1) it was 2.31 µM; at COI1-JAZ9 [2], 2.67 µM. Also, the “shift in the melting point of COI1” value on COI1 [1] (DSF) is on record as “shifted to a higher temperature”.
Taken in the same sequence, the figures for `CC[C@H]1C=C(C(=O)N[C@H](C(=O)O)[C@@H](C)CC)[C@H]2CCC(=O)[C@H]2C1` [CFA-Ile, (3R, 7S)-coronafacyl L-Ile] were 14.1 µM, 2.66 µM, 2.95 µM and “significant shift”.
Take `CC/C=C\C[C@H]1C(=O)CC[C@@H]1CC(=O)O` (racemic) [racemic jasmonic acid, jasmonic acid]: the “shift in the melting point of COI1” value at COI1 [1] (DSF) is “no shift”. Besides, on COI1-JAZ1 (DSF, COI1 with JAZP1/9), the “effect of addition of JAZP1/9 on the shift in melting point” value is listed as “did not affect the shift in melting point”.
`CC[C@H]1C=C(C(=O)N[C@@]2(C(=O)O)C[C@@H]2CC)[C@H]2CCC(=O)[C@H]2C1` [COR, coronatine]: the Kd at COI1 [1] is 4.08 µM; on COI1-JAZ1 (read-out: Kd COI1-JAZ1), 0.6 µM; on COI1-JAZ9 [2], 0.29 µM; at COI1 [3], 0.96 µM; on COI1-JAZP1 it was around 0.11 µM. Besides, the “shift in the melting point of COI1” value at COI1 [1] (DSF) is recorded as “shifted to a higher temperature”. In addition, on COI1-JAZ9 [4], the “affinity for COI1-JAZ9 relative to (3R, 7S)-JA-Ile” value is “approximately 100 times”.
For the compound `CCC1C=C(C(=O)N[C@H](C(=O)O)C(C)C)C2CCC(=O)C2C1` (stereo partly drawn) [CFA-Val, (3R, 7S)-coronafacyl L-Val], the “shift in the melting point of COI1” value at COI1 [1] (DSF) is listed as “significant shift”. The Kd on COI1 [1] (read-out: Kd COI1, DSF, 1 μM tag-free COI1, ΔTm dose-response curve fitting) was determined as 28.1 µM; at COI1-JAZ1 (DSF, 1 μM tag-free COI1 with 3 μM JAZP1, read-out: Kd COI1-JAZ1) it was 6.63 µM; on COI1-JAZ9 [2] (DSF, 1 μM tag-free COI1 with 3 μM JAZP9) it was 9.77 µM.
With `CC/C=C\C[C@@H]1C(=O)C=C[C@@H]1CCCCCCCC(=O)O` [cis-OPDA, (+)-cis-12-oxo-phytodienoic acid], the “shift in the melting point of COI1” value on COI1 [1] (DSF) was “no shift”.
Turning to `CC/C=C\C[C@@H]1C(=O)CC[C@@H]1CC(=O)N[C@H](C(=O)O)[C@@H](C)CC` [(3R, 7S)-JA-Ile, (3R, 7S)-jasmonoyl-L-isoleucine], the Kd on COI1-JAZ1 (read-out: Kd COI1-JAZ1) turned out to be 17.7 µM; at COI1-JAZ9 [2], 7.39 µM; at GST-COI1, 11 µM. For the same compound, the “-TΔS” value on GST-COI1/JAZP1 came out at 14.8 kcal/mol; on GST-COI1 (iTC, GST-COI1), 13.3 kcal/mol. The “n (binding stoichiometry)” value worked out at 0.641±0.0063 at GST-COI1/JAZP1 and 1.00 at GST-COI1 (iTC, GST-COI1, N = 1 set manually due to low C condition). Also, the ΔG was -9.5 kcal/mol at GST-COI1/JAZP1 and -6.8 kcal/mol at GST-COI1 (iTC, GST-COI1). Further, the ΔH on GST-COI1/JAZP1 is -24.3 kcal/mol; at GST-COI1 (iTC, GST-COI1), -20.0 kcal/mol. Also, the “interaction between JAZP1-ligand” value in the data set on JAZP1 is reported as “no interaction”. Also, the “(3R, 7R)-JA-Ile formed by isomerization under DSF conditions” value in data set [5] is listed as 63.9%. The “(3R, 7S)-JA-Ile remaining under DSF conditions” value in data set [5] was 36.1%. Moreover, the “(3R, 7S)-JA-Ile isomerized to (3R, 7R)-JA-Ile” value in data set [6] is given as 65%.

The values are drawn from PMC10770490, “Two distinct modes of action of molecular glues in the plant hormone co-receptor COI1-JAZ system” (iScience, 2023).
